# Assay results: US11344510B2, “Arylcyclohexylamine derivatives and their use in the treatment of psychiatric disorders” (Gilgamesh Pharmaceuticals, Inc., priority 2019, dated 2022)
# Counter-ions that a name gives are not always drawn.
# Tests used:
# [1] = target: MK-801 binding site of the N-methyl-D-aspartate receptor (NMDAR); test: NMDAR radioligand binding with [3H]MK-801, Method B; parameters: species or system Sprague Dawley rat; details: for Ki: MK-801 site, Method B, male Sprague Dawley rat cortex, 5.0 nM [3H]MK-801, read-out: NMDAR Ki ± SEM
# Procedure: Radioligand Binding—Method B. Affinity of the test compounds for NMDAR was determined in radioligand binding experiments with [^3H]MK-801 by WuXi AppTec (Hong Kong) Limited, under the conditions described in Table 13.
# [2] = target: T1, serotonin transporter (SERT) (Homo sapiens, UniProt P31645); test: Fluorescent substrate uptake inhibition, SERT; format: cell-based; details: for inhibition at 10 µM: HEK293 cells expressing SERT
# T1 construct: expressed in transfected cells; host or cells: HEK293
# [3] = target: T2, vesicular monoamine transporter 2 (VMAT2) (Homo sapiens, UniProt Q05940); test: Fluorescent substrate uptake inhibition, VMAT2; format: cell-based; details: for inhibition at 10 µM: transfected cells
# T2 construct: expressed in transfected cells
# [4] = test system: monoamine transporters, MATs (SERT, NET, DAT, VMAT2); test: Monoamine uptake inhibition, monoamine transporters collectively; format: cell-based; details: in words
# Procedure: The ability of the compounds of the present invention to inhibit uptake of monoamines by the serotonin transporter (SERT), norepinephrine transporter (NET), dopamine transporter (DAT), and vesicular monoamine transporter 2 (VMAT2) (collectively monoamine transporters, MATs) was measured using fluorescent substrate uptake assays in transfected cells (Table 14). The binding affinities of select compounds were also determined in radioligand displacement assays at SERT, NET, and/or DAT (Table 14).
# Uptake Inhibition. The ability of test compounds to block monoamine uptake by SERT, NET, DAT, and VMAT2 was determined using the Neurotransmitter Transporter Uptake Assay Kit manufactured by Molecular Devices (Cat #R8173). Briefly, stably transfected cells expressing the MAT of interest (HEK293 cells for SERT and NET; CHO cells for DAT) were grown and plated into 384-well plates at a concentration of 20,000 cells per well. Plates were then incubated for 16-20 h at 37° C. and 5% CO2. The medium was then aspirated and replaced with 25 μL of assay buffer (20 mM HEPES in HBSS, containing 0.1% BSA) containing the test compounds at the appropriate concentrations. Plates were then centrifuged at 300 rpm for 15 s and then incubated at 37° C. for 30 minutes. At this time, 25 μL of the proprietary fluorescent dye solution was added, the plates were incubated at 37° C. for 60 minutes, and then fluorescence was quantified on a plate reader (excitation wavelength=440 nm, emission wavelength=520 nm). The proprietary dye solution contains a mixture of 1) a fluorescent dye that mimics the endogenous substrates of MATs and is thereby actively transported to the intracellular compartment in the absence of an inhibitor and 2) a masking dye that inhibits the fluorescence of dye 1 in the extracellular compartment. Therefore, the overall fluorescence of the system increases as the fluorescent dye is transported into the cells.
# [5] = HLM stability (High Activity); format: in vitro ADME; details: both sexes, human, liver microsomes, pH 7.4, Condition 2 (High Activity), 1.0 mg protein/mL
# Procedure, shortened: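 Pooled male and female human liver microsomes, 1.0 mg protein/mL, in 100 mM PBS pH 7.4 with NADPH-regenerating system; compound 1 μM at 37° C, five time points over 60 min. Parent remaining by LC-MS/MS; kel, t1/2 and Clint from linear regression of ln(AUC) versus time.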
# T1 sequence (P31645 whole entry, species assumed): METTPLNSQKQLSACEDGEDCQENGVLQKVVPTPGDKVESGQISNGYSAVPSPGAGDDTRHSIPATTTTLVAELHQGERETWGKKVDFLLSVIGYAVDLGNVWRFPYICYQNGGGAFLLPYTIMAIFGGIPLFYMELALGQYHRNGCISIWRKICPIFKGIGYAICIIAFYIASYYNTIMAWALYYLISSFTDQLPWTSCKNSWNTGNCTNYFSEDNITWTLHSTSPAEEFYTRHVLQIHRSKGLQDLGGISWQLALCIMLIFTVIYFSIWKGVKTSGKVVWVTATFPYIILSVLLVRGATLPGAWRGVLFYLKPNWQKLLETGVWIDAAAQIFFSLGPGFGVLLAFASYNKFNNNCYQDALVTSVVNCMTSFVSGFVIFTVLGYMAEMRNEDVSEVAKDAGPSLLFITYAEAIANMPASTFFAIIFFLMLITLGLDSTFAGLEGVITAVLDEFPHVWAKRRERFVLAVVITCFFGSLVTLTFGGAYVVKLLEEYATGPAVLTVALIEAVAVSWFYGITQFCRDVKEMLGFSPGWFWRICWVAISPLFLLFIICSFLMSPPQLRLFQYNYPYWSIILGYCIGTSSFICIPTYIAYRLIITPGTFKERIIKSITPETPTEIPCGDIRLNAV
# T2 sequence (Q05940 whole entry, species assumed): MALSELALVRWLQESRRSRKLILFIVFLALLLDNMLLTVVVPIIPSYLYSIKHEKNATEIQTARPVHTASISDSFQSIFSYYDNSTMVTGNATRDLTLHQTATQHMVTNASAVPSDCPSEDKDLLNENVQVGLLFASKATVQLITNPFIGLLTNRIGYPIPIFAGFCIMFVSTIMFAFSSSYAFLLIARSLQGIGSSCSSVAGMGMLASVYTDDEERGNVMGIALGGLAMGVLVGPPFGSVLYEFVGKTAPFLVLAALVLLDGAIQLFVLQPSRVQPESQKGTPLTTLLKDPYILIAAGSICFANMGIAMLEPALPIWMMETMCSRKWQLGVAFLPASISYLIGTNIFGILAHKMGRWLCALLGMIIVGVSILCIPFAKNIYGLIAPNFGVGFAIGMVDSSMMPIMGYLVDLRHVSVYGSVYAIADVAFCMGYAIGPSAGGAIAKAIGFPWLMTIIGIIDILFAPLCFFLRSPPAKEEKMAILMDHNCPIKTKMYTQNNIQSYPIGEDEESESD
SMILES,Ki [1] [nM],inhibition at 10 µM [2] [%],inhibition at 10 µM [3] [%],selectivity for NMDAR (over MATs) [4],half-life at 1 μM [5] [h],microsomal CLint at 1 μM [5] [µL/min/mg],"NMDAR binding affinity, comparison in words ([1]; 14R vs rac-ketamine, (R)-ketamine, (S)-ketamine and 14S, R enantiomers vs S enantiomers or racemates)",IC50 [2] [nM],IC50 [3] [nM]
"Cc1ccccc1[C@@]1(N)CCCCC1=O [Compound 114S, (S)-2-amino-2-(o-tolyl)cyclohexan-1-one]",2500,-4,-15.9,greater selectivity for NMDAR,–,–,–,–,–
"CN[C@@]1(c2ccccc2)CCCCC1=O [Compound 14R, (R)-2-(methylamino)-2-phenylcyclohexan-1-one]",4500,19.3,6.2,greater selectivity for NMDAR,9.77,1,weaker NMDAR binding,45500,–
"[2H]C([2H])([2H])N[C@@]1(c2ccccc2)CCCCC1=O [Compound 88R, (R)-2-((methyl-d3)amino)-2-phenylcyclohexan-1-one]",3400,25.9,20.2,greater selectivity for NMDAR,2.92,4,–,–,–
"N[C@]1(c2ccccc2)CCCCC1=O [Compound 11S, (S)-2-amino-2-phenyl-cyclohexan-1-one]",1200,-2.6,-17.4,greater selectivity for NMDAR,3.25,4,–,–,–
"O=C1CCCCC1(c1ccccc1)N1CCCC1 (racemic) [Compound 27rac, 2-phenyl-2-(pyrrolidin-1-yl)cyclohexan-1-one]",1100,88.6,60.4,–,3.87,3,–,450,11200
"Cc1ccccc1[C@]1(N)CCCCC1=O [Compound 114R, (R)-2-amino-2-(o-tolyl)cyclohexan-1-one]",> 23000,23.4,-14,–,–,–,–,–,–
"N[C@@]1(c2ccccc2)CCCCC1=O [Compound 11R, (R)-2-amino-2-phenyl-cyclohexan-1-one]",9400,0.19,14.4,–,3.31,3,–,–,–
"CNC1(c2ccccc2)CCCCC1=O (racemic) [Compound 14rac, 2-(methylamino)-2-phenylcyclohexan-1-one hydrochloride]",–,–,–,–,6.12,2,–,–,–
"CN[C@]1(c2cccc(F)c2)CCCCC1=O [Compound 19S, (5)-2-(3-fluorophenyl)-2-(methylamino)cyclohexan-1-one]",2100,20.6,-0.87,greater selectivity for NMDAR,1.59,7,–,–,–
"COCCNC1(c2ccccc2)CCCCC1=O (racemic) [Compound 29rac, 2-((2-methoxyethyl)amino)-2-phenylcyclohexan-1-one]",4400,–,–,greater selectivity for NMDAR,2.33,5,–,–,–
"O=C1CCCC[C@@]1(c1ccccc1)N1CCC1 [Compound 84S, (S)-2-(azetidin-1-yl)-2-phenyl-cyclohexan-1-one]",1300,91.9,10.9,–,2.76,4,–,940,> 100000
"CN[C@]1(c2ccccc2)CCCCC1=O [Compound 14S, (S)-2-(methylamino)-2-phenylcyclohexan-1-one]",690,17,7.4,–,6.18,2,–,30600,–
"O=C1CCCC[C@]1(c1ccccc1)N1CCC1 [Compound 84R, (R)-2-(azetidin-1-yl)-2-phenyl-cyclohexan-1-one]",2300,75.2,14.1,–,2.75,4,–,800,98200
"CNC1(c2ccccc2Cl)CCCCC1=O (racemic) [rac-ketamine, racemic ketamine, reference compound]",–,–,–,–,0.613,19,–,–,–
